Data published in EP0403249A1, “Leukotriene antagonists” (SMITHKLINE BEECHAM CORPORATION, priority 1989, dated 1990).

Tested on: LTD₄
Assay: Inhibition of leukotriene (LTD₄) induced contraction of guinea pig tracheal tissues in vitro
Conditions: LTD₄ concentration-response on guinea pig tracheal spiral strips, 30 minutes pretreatment with test compound, EC₃₀ shift; current average where tested more than once
Protocol: The leukotriene antagonist activity of the compounds of this invention is measured by the ability of the compounds to inhibit the leukotriene induced contraction' of guinea pig tracheal tissues in vitro. The following methodology was employed: In vitro: Guinea pig (adult male albino Hartley strain) tracheal spiral strips of approximate dimensions 2 to 3 mm cross-sectional width and 3.5 cm length were bathed in modified Krebs buffer in jacketed 10 ml tissue bath and continuously aerated with 95% 0₂/5% CO₂. The tissues were connected via silk suture to force displacement transducers for recording isometric tension. The tissues were equilibrated for 1 hr., pretreated for 15 minutes with meclofenamic acid (1uM) to remove intrinsic prostaglandin responses, and then pretreated for an additional 30 minutes with either the test compound or vehicle control. A cumulative concentration-response curve for LTD₄ on triplicate tissues was generated by successive increases in the bath concentration of the LTD₄. In order to minimize intertissue variability, the contractions elicited by LTD₄ were standardized as a percentage of the maximum response obtained to a reference agonist, carbachol (10uM).
Calculations: The averages of the triplicate LTD₄ concentration-response curves both in the presence and absence of the test compound were plotted on log graph paper. The concentration of LTD₄ needed to elicit 30% of the contraction elicited by carbachol was measured and defined as the EC₃₀. The -log KB value for the test compound was determined by the following equations: [formula] 2. KB= concentration of test compound/(X-1)
The antagonist activity of representative compounds of this invention is listed in Table I. The -log KB values were calculated from the above protocol. Where compounds were tested more than once, the -log KB values given here represent the current average data.

Compound | In Vitro-Log KB
O=C(O)c1ccccc1SC(c1ccccc1CCCCCCCCc1ccccc1)C(O)C(=O)O (stereo not shown) [1), 2-Hydroxy-3-(2-carboxyphenylthio)-3-[2-(8-phenyloctyl)phenyl]propionic acid] | 5.5
O=C(O)c1ccccc1CS[C@H](c1ccccc1CCCCCCCCc1ccccc1)[C@@H](O)C(=O)O [2), 2(S)-Hydroxy-3(R)-(2-carboxyphenylmethylthio)-3-[2-(8-phenyloctyl)phenyl]propionic acid] | 6.2
O=C(O)c1cccc(CS[C@H](c2ccccc2CCCCCCCCc2ccccc2)[C@@H](O)C(=O)O)c1 [3), 2(S)-Hydroxy-3(R)-(3-carboxyphenylmethylthio)-3-[2-(8-phenyloctyl)phenyl]propionic acid] | 6.6
O=C(O)c1cccc(SC(c2ccccc2CCCCCCCCc2ccccc2)C(O)C(=O)O)c1 (stereo not shown) [4), 2-Hydroxy-3-(3-carboxyphenylthio)-3-[2-(8-phenyloctyl)phenyl]propionic acid] | 7.0
O=C(O)c1ccc(SC(c2ccccc2CCCCCCCCc2ccccc2)C(O)C(=O)O)cc1 (stereo not shown) [5), 2-Hydroxy-3-(4-carboxyphenylthio)-3-[2-(8-phenyloctyl)phenyl]propionic acid] | 7.6
COc1cc(C(=O)O)ccc1CSC(c1ccccc1CCCCCCCCc1ccccc1)C(O)C(=O)O (stereo not shown) [6), 2-Hydroxy-3-(4-carboxy-2-methoxyphenylmethylthio)-3-[2-(8-phenyloctyl)phenyl]propionic acid] | 7.9
O=C(O)c1ccc(CSC(c2ccccc2CCCCCCCCc2ccccc2)C(O)C(=O)O)cc1 (stereo not shown) [7), 2-Hydroxy-3-(4-carboxyphenylmethylthio)-3-[2-(8-phenyloctyl)phenyl]propionic acid] | 7.1
O=C(O)c1ccc(CSC(c2ccccc2CCCCCCCCc2ccccc2)C(O)C(=O)O)c(F)c1 (stereo not shown) [8), 2-Hydroxy-3-(2-fluoro-4-carboxyphenylmethylthio)-3-[2-(8-phenyloctyl)phenyl]propionic acid] | 7.8
COC(C(=O)O)C(Sc1ccc(C(=O)O)cc1)c1ccccc1CCCCCCCCc1ccccc1 (stereo not shown) [9), 2-Methoxy-3-(4-carboxyphenylthio)-3-[2-(8-phenyloctyl)phenyl]propionic acid] | 7.6
O=C(O)C(O)C(Sc1ccc(O)cc1)c1ccccc1CCCCCCCCc1ccccc1 (stereo not shown) [10), 2-Hydroxy-3-(4-hydroxyphenylthio)-3-[2-(8-phenyloctyl)phenyl]propionic acid] | 5.9
COc1cc(C(=O)O)ccc1CSC(c1ccccc1CCCCCCCCc1ccccc1)C(OC)C(=O)O (stereo not shown) [11), 2-Methoxy-3-(4-carboxy-2-methoxyphenylmethylthio)-3-[2-(8-phenyloctyl)phenyl]propionic acid] | 7.4
COc1cc(C(=O)O)ccc1CSC(CC(=O)O)c1ccccc1CCCCCCCCc1ccccc1 (stereo not shown) [12), 3-(4-Carboxy-2-methoxyphenylmethylthio)-3-[2-(8-phenyloctyl)phenyl]propionic acid] | 7.5
COc1ccc(C(=O)O)cc1CSC(c1ccccc1CCCCCCCCc1ccccc1)C(O)C(=O)O (stereo not shown) [13), 2-Hydroxy-3-[(5-carboxy-2-methoxyphenylmethyl)thio]-3-[2-(8-phenyloctyl)phenyl]propionic acid] | 6.5
